Data: patent US10676474B2, “1,6-naphthyridine derivatives as CDK4/6 inhibitor” (CSTONE PHARMACEUTICALS, priority 2016, dated 2020)
In brackets after ≈: the same amount, converted by molar mass. Read-outs that look alike come from different tables or passages of the source.

What was measured:
[1] = Metabolic stability in human liver microsomes; assay type: in vitro ADME; details: 0.5 mg/mL protein, read-out: Human T1/2
Procedure: (§1) This assay is used to test the metabolic stability of tested substances in rats, mice and human liver microsomes.
(§2) 1) The tested compound with concentration of 1 μM was co-incubated with liver microsomes with a protein concentration of 0.5 mg/mL under a reducing coenzyme II regeneration system in a 37° C. water bath.
(§3) 2) The positive controls include: testosterone (3A4 substrate), propafenene (2D6 substrate) and diclofenac (2C9 substrate). The incubation condition of the positive controls was consistent with that of the compound.
(§4) 3) The reaction time points were: 0, 5, 10, 20, 30 and 60 minutes, and the reaction is terminated at the corresponding time point using a termination solution containing an internal standard. The compounds were also incubated with microsomes for 60 minutes without a reducing coenzyme II regeneration system and served as a negative control.
(§5) 4) Each time point was a single point (n=1).
(§6) 5) The sample was determined by LC/MS/MS, and the compound concentration was shown as the ratio of the peak area of the compound to the peak area of the internal standard (non-standard).
(§7) 6) In the project report summary, the half-life and the clearance rate would be calculated.

Caco-2 cells [2] = experiment: Two-way permeability evaluation assay of Caco-2 cells; details: Caco-2
Caco-2 cells [3] = system: Caco-2 cells
[4] = In vivo pharmacodynamic study (2), NCI-H358 model, animal weight; parameters: species or system BALB/c nude mice; details: 60 mg/kg orally daily
Procedure: (§8) The in vivo pharmacodynamic experiments were performed on the BALB/c nude mice implanted subcutaneously with the non-small cell lung cancer NCI-H358 model.
(§9) All of the cages, beddings and water were disinfected before use. All of the animals were permitted free access to a standard certified commercial laboratory diet. A total of 86 mice purchased from Vital River Laboratory Animal Co., LTD, Beijing were used for the study. The animal information of the experiments in Example 34 was as follows: BALB/c nude mice, female, 6-8 weeks, weighing approximately 16-18 g, were placed in a single ventilated cage (4 mice per cage) under a special pathogen free environment. All of the cages, beddings and water were disinfected before use. All of the animals were permitted free access to a standard certified commercial laboratory diet. A total of 56 mice purchased from Shanghai Lingchang Biotechnology Co., Ltd. were used for the study.
(§10) Each mouse was implanted subcutaneously with NCI-H358 tumor cells in the right back for tumor growth. The dosing initiated when the average tumor volume reached about 100-200 mm^3. […] The tumor volume was measured twice a week using a two-dimensional caliper, and the volume was measured in mm^3, calculated by the following the formula: V=0.5 a×b^2, wherein, a and b were the long and short diameters of the tumor, respectively. The antitumor efficacy was determined by dividing the average increase in the tumor volume of the animals treated with the compound by the average increase in the tumor volume of the untreated animals, and the safety of the compound was determined by the change in the body weight of the animal treated with the compound.

[5] = system: non-small cell lung cancer NCI-H358 model; experiment: In vivo pharmacodynamic study (2), NCI-H358 model, tumor volume; parameters: species or system BALB/c nude mice; details: 60 mg/kg orally daily, Table 6-1
Procedure: as §8, §9, §10
TGI: Tumor Growth Inhibition.

[6] = Metabolic stability in mouse liver microsomes; assay type: in vitro ADME; details: 0.5 mg/mL protein, read-out: Mice T1/2
Procedure: as §1, §2, §3, §4, §5, §6, §7

[7] = Metabolic stability in rat liver microsomes; assay type: in vitro ADME; details: 0.5 mg/mL protein, read-out: Rats T1/2
Procedure: as §1, §2, §3, §4, §5, §6, §7

[8] = it has been reported; cited from earlier work
[9] = Thermodynamic solubility test (shake-flask, HPLC); assay type: physicochemical; details: phosphate buffer, aqueous buffer, thermodynamic from solid; pH = 7.4, Table 3-2; read-out: Thermodynamic solubility
Procedure: The thermodynamic solubility of the compounds was determined by the shake-flask method and HPLC. The solubility of the compounds is an important property that affects drug screening of compounds and the absorption of compounds in animals and humans. A saturated solution of the compound was first given and quantitatively tested by HPLC to obtain the solubility of the compound.
50 mM phosphate buffer solution, pH 7.4.
Not less than 2 mg of the sample powder was weighed into a vial of Whatman miniuniprep. If test of the thermodynamic solubility of a sample in multiple buffer solutions is required, an individual vial is required for each test.
450 μL of the buffer solution (pH 7.4) was added to each Whatman miniuniprep vial.
After the addition of the buffer solution, the Whatman miniuniprep cap with a filter was mounted and pressed above the liquid level so that the filter could contact with the buffer solution during shaking.
And the observation of the solution was recorded.
It was shaked at 550 RPM for 24 hours at room temperature (about 22 to 25° C.).
The Whatman Miniunipreps filter cap was pressed to the bottom to give the filtrate of the sample solubility solution. All sample vials should be filtered before and after insoluble substances and their leakage.
The buffer was diluted 50 folds to give a sample diluent.
Three UV standards from low to high concentration were injected into HPLC, followed by the injection of the dilutions and supernatants of the tested compounds. The tested sample was injected twice.

physchem = details: pH 7.4, aqueous buffer, kinetic from dmso stock
[10] = system: LU-01-0393 lung cancer patient-derived tumor tissue xenograft (PDX); experiment: In vivo pharmacodynamic study (1), LU-01-0393 PDX; parameters: species or system BALB/c nude mice; details: 120 mg/kg orally daily
Procedure: The in vivo pharmacodynamic experiments were performed on the BALB/c nude mice implanted subcutaneously with the LU-01-0393 lung cancer patient-derived tumor tissue xenograft (PDX).
BALB/c nude mice, female, 6-8 weeks, weighing approximately 17-21 g, were placed in a single ventilated cage (5 mice per cage) under a special pathogen free environment. All of the cages, beddings and water were disinfected before use. All of the animals were permitted free access to a standard certified commercial laboratory diet. A total of 36 mice purchased from Vital River Laboratory Animal Co., LTD, Beijing were used for the study. Each mouse was implanted subcutaneously with a tumor LU-01-0393 FP4 section (20-30 mm^3) in the right back for tumor growth. The dosing initiated when the average tumor volume reached about 150-200 mm^3. The tumor volume was measured twice a week using a two-dimensional caliper, and the volume was measured in mm^3, calculated by the following the formula: V=0.5 a×b^2, wherein, a and b were the long and short diameters of the tumor, respectively. The antitumor efficacy was determined by dividing the average increase in the tumor volume of the animals treated with the compound by the average increase in the tumor volume of the untreated animals.

NCI-H358 cells = experiment: Cell viability assay NCI-H358 (CellTiter-Glo); assay type: cell-based; details: Homo sapiens, 168 h; NCI-H358, incubated for 7 days
Procedure: The NCI-H358 cell line is from the cell bank of the Department of Biology of WuXi Apptec Co. Ltd. Envision Multi-Label Analyzer (PerkinElmer).
1) 100 μL of phosphate buffer solution was added to the peripheral wells of the 384-well plate and 40 μL of NCI-H358 cell suspension was added to the other wells containing 250 NCI-H358 cells. The cell plate was then placed in a carbon dioxide incubator and incubated overnight.
2) A 3-fold gradient dilution was subjected to the tested compounds using Echo. Each compound was diluted by 10 concentration gradients (diluted from 25 μM to 1.27 nM), 100 nL of which was added to the corresponding wells of the cell plate. The cell plate was then placed in a carbon dioxide incubator and incubated for 7 days.
3) 20 μL of Promega CellTiter-Glo reagent was added to each well of the cell plate, and shaken for 10 minutes away from light at room temperature to stabilize the luminescence signal. Readings were performed using a PerkinElmer Envision Multi-label Analyzer.
Table 1 provides the inhibitory activity of the compounds of the present invention against the proliferation of H358 cells.

Compound | half-life at 1 μM [1] [min] | Category Efflux transporter substrate (Caco-2 cells [3]) | Changes in animal weight, 0 days [4] [%] | Changes in animal weight, 7 days [4] [%] | Changes in animal weight, 14 days [4] [%] | Changes in animal weight, 17 days [4] [%] | Gross tumor volume, 0 day [5] [mm^3] | Gross tumor volume, 7 days [5] [mm^3] | Gross tumor volume, 14 days [5] [mm^3] | Gross tumor volume, 17 days [5] [mm^3] | half-life at 1 μM [6] [min] | half-life at 1 μM [7] [min] | also measured
CCN1CCN(Cc2ccc(Nc3ncc(F)c(-c4cc(F)c5nc(C)n(C(C)C)c5c4)n3)nc2)CC1 [LY2835219, Abemaciclib] | 2.69 | Possible | 0.0 | −2.9 | −3.5 | −3.5 | 152 | 97 | 73 | 60 | 2.36 | 6.34 | Category Permeability (Caco-2 cells [2]): Medium
CC(=O)c1c(C)c2cnc(Nc3ccc(N4CCNCC4)cn3)nc2n(C2CCCC2)c1=O [Palbociclib] | 44.7 | Highly | 0.0 | 1.0 | 0.9 | 0.7 | 152 | 137 | 107 | 104 | 53.3 | 47.8 | brain permeability [8]: poor; solubility thermodynamic at 24 h [9]: 65.3 µM (≈ 29.2 µg/mL); Category Permeability (Caco-2 cells [3]): Low; solubility kinetic at 24 h (physchem): 103 µM (≈ 46.1 µg/mL); Gross tumor volume Day 0 ([10]; Day 0): 145 mm^3; Gross tumor volume Day 7 ([10]; Day 7): 173 mm^3; Gross tumor volume Day 14 ([10]; Day 14): 179 mm^3; Gross tumor volume Day 20 ([10]; Day 20): 188 mm^3; IC50 (NCI-H358 cells): 314 nM
